According to ChEMBL document CHEMBL1136394, “Synthesis and in vivo imaging properties of [11C]befloxatone: a novel highly potent positron emission tomography ligand for mono-amine oxidase-A” (Bioorg Med Chem Lett, 2003):

Assays:
[1] = Half life was determined; format: ADME; conditions: rat
[2] = biological target: T1, Amine oxidase [flavin-containing] A (Rattus norvegicus, UniProt P21396); assay: Compound was tested for inhibition of MAOA in rat brain, heart, liver and duodenum homogenates; Range is 1.9-3.6 nM; format: tissue-based
T1 sequence (P21396 whole entry): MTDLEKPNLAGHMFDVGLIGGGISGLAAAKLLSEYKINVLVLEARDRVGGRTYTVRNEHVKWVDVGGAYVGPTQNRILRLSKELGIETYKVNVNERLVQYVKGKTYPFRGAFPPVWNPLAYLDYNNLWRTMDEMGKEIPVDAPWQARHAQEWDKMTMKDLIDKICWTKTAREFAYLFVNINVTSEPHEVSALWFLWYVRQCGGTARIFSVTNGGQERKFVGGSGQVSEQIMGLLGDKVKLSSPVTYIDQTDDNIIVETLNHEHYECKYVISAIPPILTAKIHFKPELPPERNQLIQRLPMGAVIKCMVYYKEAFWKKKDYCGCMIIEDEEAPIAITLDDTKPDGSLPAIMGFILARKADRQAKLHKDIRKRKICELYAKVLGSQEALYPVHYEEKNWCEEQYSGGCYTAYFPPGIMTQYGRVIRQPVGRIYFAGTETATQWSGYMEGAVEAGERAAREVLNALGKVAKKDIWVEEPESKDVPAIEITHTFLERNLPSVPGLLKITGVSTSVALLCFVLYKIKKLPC

Mus musculus [3] = assay: Intravenous effective dose against L-5-hydroxytryptophan induced generalized tremors in mice; format: functional
Mus musculus [4] = assay: Oral effective dose against L-5-hydroxytryptophan induced generalized tremors in mice; Range is 0.1-0.2 mg/Kg; format: functional
[5] = biological target: T2, Amine oxidase [flavin-containing] A (Homo sapiens, UniProt P21397); assay: Compound was tested for inhibition of MAOA in human brain, heart, liver and duodenum homogenates; Range is 1.9-3.6 nM; format: tissue-based
T2 sequence (P21397 whole entry): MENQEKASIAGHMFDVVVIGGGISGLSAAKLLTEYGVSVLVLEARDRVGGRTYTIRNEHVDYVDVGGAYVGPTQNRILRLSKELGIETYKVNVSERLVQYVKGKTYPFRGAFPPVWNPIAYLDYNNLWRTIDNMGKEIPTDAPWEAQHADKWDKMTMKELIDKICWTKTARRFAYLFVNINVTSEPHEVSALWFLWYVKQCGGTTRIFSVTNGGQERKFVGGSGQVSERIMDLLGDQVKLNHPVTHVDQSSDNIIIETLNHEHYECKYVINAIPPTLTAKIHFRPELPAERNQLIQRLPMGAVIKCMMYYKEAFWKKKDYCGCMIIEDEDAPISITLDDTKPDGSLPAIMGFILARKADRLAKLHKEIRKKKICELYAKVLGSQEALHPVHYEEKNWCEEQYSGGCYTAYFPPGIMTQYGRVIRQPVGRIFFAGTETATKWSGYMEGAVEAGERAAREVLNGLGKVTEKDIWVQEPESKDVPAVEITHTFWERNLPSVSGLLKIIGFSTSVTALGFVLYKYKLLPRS

Mus musculus [6] = species on record: Mus musculus; assay: Oral effective dose against phenylethylamine-induced stereotypy in mice; format: functional

- half-life [1]: 20.4 min
- Ri [2]: 1.9 nM
- Ri [5]: 1.9 nM
SMILES: COC[C@H]1CN(c2ccc(OCC[C@@H](O)C(F)(F)F)cc2)C(=O)O1 [BEFLOXATONE]
- ED50 (Mus musculus [3]): 0.07 mg/kg
- ED50 (Mus musculus [4]): 0.2 mg/kg
- ED50 (Mus musculus [6]): 58 mg/kg
